Patent US6737383B1, “Herbicidal oxadiazolidines” (priority 1999, dated 2004)

Key:
velvetleaf = assay: Test B pre/postemergence velvetleaf; format: in vivo, Abutilon theophrasti
Procedure, shortened: (§1)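 Response is a visual 0-to-10 score relative to untreated plants, where 0 means no effect and 10 means complete control, taken twelve to sixteen days after application. Treatments went onto soil at planting and onto foliage of 1- to 4-leaf plants, using a surfactant-containing non-phytotoxic solvent.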

corn = assay: Test B pre/postemergence corn; format: in vivo, Zea mays
Procedure, shortened: as §1

soybean = assay: Test B pre/postemergence soybean; format: in vivo, Glycine max
Procedure, shortened: as §1

purple nutsedge = assay: Test B pre/postemergence purple nutsedge; format: in vivo, Cyperus rotundus
Procedure, shortened: as §1

rice = assay: Test B flood test rice; format: in vivo, Oryza sativa
Procedure, shortened: (§2)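 Plants were grown to the 2-leaf stage before treatment with test chemical, then held in a greenhouse for twelve to sixteen days. Injury was visually rated against untreated controls on a 0–10 scale, where 0 is no effect and 10 is complete control.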

bedstraw = assay: Test B pre/postemergence bedstraw; format: in vivo, Galium aparine
Procedure, shortened: as §1

blackgrass = assay: Test B pre/postemergence blackgrass; format: in vivo, Alopecurus myosuroides
Procedure, shortened: as §1

wheat = assay: Test B pre/postemergence wheat; format: in vivo, Triticum aestivum
Procedure, shortened: as §1

sugar beet = assay: Test B pre/postemergence sugar beet; format: in vivo, Beta vulgaris
Procedure, shortened: as §1

duck salad = assay: Test B flood test duck salad; format: in vivo, Heteranthera limosa
Procedure, shortened: as §2

surinam grass = assay: Test B pre/postemergence surinam grass; format: in vivo, Brachiaria decumbens
Procedure, shortened: as §1

giant foxtail = assay: Test B pre/postemergence giant foxtail; format: in vivo, Setaria faberii
Procedure, shortened: as §1

cocklebur = assay: Test B pre/postemergence cocklebur; format: in vivo, Xanthium strumarium
Procedure, shortened: as §1

wild oat = assay: Test B pre/postemergence wild oat; format: in vivo, Avena fatua
Procedure, shortened: as §1

pigweed = assay: Test B pre/postemergence pigweed; format: in vivo, Amaranthus retroflexus
Procedure, shortened: as §1

crabgrass = assay: Test B pre/postemergence crabgrass; format: in vivo, Digitaria sanguinalis
Procedure, shortened: as §1

[1] = Postemergence, Rate 31 g/ha, visual rating, scale 0 to 10 (0 no effect, 10 complete control)
[2] = Preemergence, Rate 62 g/ha, scale of 0 to 10 where 0 is no effect and 10 is complete control
[3] = Preemergence, Rate 250 g/ha, scale of 0 to 10 where 0 is no effect and 10 is complete control
[4] = Rate 62 g/ha, Postemergence, scale 0 to 10, 0 no effect, 10 complete control
[5] = Rate 125 g/ha, Postemergence, scale of 0 to 10 where 0 is no effect and 10 is complete control
[6] = Rate 250 g/ha, Postemergence, scale of 0 to 10 where 0 is no effect and 10 is complete control
[7] = Preemergence, Rate 31 g/ha, visual rating, scale 0 to 10 (0 no effect, 10 complete control)
[8] = Rate 31 g/ha, Pre-emergence section (flood test species), scale 0 to 10
[9] = Rate 62 g/ha, headed Pre-emergence (flood test species), scale 0 to 10 (0 no effect, 10 complete control)
[10] = Rate 125 g/ha, Pre-emergence, flood test species, scale 0 to 10 where 0 is no effect and 10 is complete control
[11] = Rate 250 g/ha, Pre-emergence, flood-test species, scale 0 to 10, 0 is no effect, 10 is complete control

COCC(C)N(C(=O)n1oc(=O)n(-c2ccccc2C)c1=O)c1ccc(F)cc1 (centres unmarked) [Compound 324]
1: Soybean plant response rating (soybean; [5]) | Plant response rating, Soybean (soybean; [6])
2: Plant response rating, Cocklebur (cocklebur; [6])
0: Velvetleaf plant response rating (velvetleaf; [1]) | Velvetleaf plant response rating (velvetleaf; [2]) | Velvetleaf plant response rating (0 to 10 scale) (velvetleaf; Preemergence, Rate 125 g/ha) | Velvetleaf plant response rating (velvetleaf; [3]) | Velvetleaf plant response rating (velvetleaf; [4]) | Velvetleaf plant response rating (velvetleaf; [5]) | Plant response rating, Velvetleaf (velvetleaf; [6]) | Corn plant response rating (corn; [1]) | Corn plant response rating (corn; [7]) | Corn plant response rating (corn; [2]) | Corn plant response rating (0 to 10 scale) (corn; Preemergence, Rate 125 g/ha) | Corn plant response rating (corn; [3]) | Corn plant response rating (corn; [4]) | Corn plant response rating (corn; [5]) | Plant response rating, Corn (corn; [6]) | Soybean plant response rating (soybean; [1]) | Soybean plant response rating (soybean; [2]) | Soybean plant response rating (0 to 10 scale) (soybean; Preemergence, Rate 125 g/ha) | Soybean plant response rating (soybean; [3]) | Soybean plant response rating (soybean; [4]) | Nutsedge plant response rating (purple nutsedge; [1]) | Nutsedge plant response rating (purple nutsedge; [2]) | Nutsedge plant response rating (0 to 10 scale) (purple nutsedge; Preemergence, Rate 125 g/ha) | Nutsedge plant response rating (purple nutsedge; [3]) | Nutsedge plant response rating (purple nutsedge; [4]) | Nutsedge plant response rating (purple nutsedge; [5]) | Plant response rating, Nutsedge (purple nutsedge; [6]) | Rice plant response rating (rice; [8]) | Rice plant response rating (rice; [9]) | Rice plant response rating (rice; [10]) | Rice plant response rating (rice; [11]) | Bedstraw plant response rating (bedstraw; [1]) | Bedstraw plant response rating (bedstraw; [7]) | Bedstraw plant response rating (bedstraw; [2]) | Bedstraw plant response rating (0 to 10 scale) (bedstraw; Preemergence, Rate 125 g/ha) | Bedstraw plant response rating (bedstraw; [3]) | Bedstraw plant response rating (bedstraw; [4]) | Bedstraw plant response rating (bedstraw; [5]) | Plant response rating, Bedstraw (bedstraw; [6]) | Blackgrass plant response rating (blackgrass; [1]) | Blackgrass plant response rating (blackgrass; [7]) | Blackgrass plant response rating (blackgrass; [2]) | Blackgrass plant response rating (0 to 10 scale) (blackgrass; Preemergence, Rate 125 g/ha) | Blackgrass plant response rating (blackgrass; [3]) | Blackgrass plant response rating (blackgrass; [4]) | Blackgrass plant response rating (blackgrass; [5]) | Plant response rating, Blackgrass (blackgrass; [6]) | Wheat plant response rating (wheat; [1]) | Wheat plant response rating (wheat; [2]) | Wheat plant response rating (0 to 10 scale) (wheat; Preemergence, Rate 125 g/ha) | Wheat plant response rating (wheat; [3]) | Wheat plant response rating (wheat; [4]) | Wheat plant response rating (wheat; [5]) | Plant response rating, Wheat (wheat; [6]) | Sugarbeets plant response rating (sugar beet; [1]) | Sugarbeets plant response rating (sugar beet; [2]) | Sugarbeets plant response rating (0 to 10 scale) (sugar beet; Preemergence, Rate 125 g/ha) | Sugarbeets plant response rating (sugar beet; [3]) | Sugarbeets plant response rating (sugar beet; [4]) | Sugarbeets plant response rating (sugar beet; [5]) | Plant response rating, Sugarbeets (sugar beet; [6]) | Ducksalad plant response rating (duck salad; [8]) | Ducksalad plant response rating (duck salad; [9]) | Ducksalad plant response rating (duck salad; [10]) | Ducksalad plant response rating (duck salad; [11]) | B. signalgrass plant response rating (surinam grass; [1]) | B. signalgrass plant response rating (surinam grass; [7]) | B. signalgrass plant response rating (surinam grass; [2]) | B. signalgrass plant response rating (0 to 10 scale, 0 is no effect, 10 is complete control) (surinam grass; Preemergence, Rate 125 g/ha) | B. signalgrass plant response rating (surinam grass; [3]) | B. signalgrass plant response rating (surinam grass; [4]) | B. signalgrass plant response rating (surinam grass; [5]) | Plant response rating, B. signalgrass (surinam grass; [6]) | Giant foxtail plant response rating (giant foxtail; [1]) | Giant foxtail plant response rating (giant foxtail; [7]) | Giant foxtail plant response rating (giant foxtail; [2]) | Giant foxtail plant response rating (0 to 10 scale) (giant foxtail; Preemergence, Rate 125 g/ha) | Giant foxtail plant response rating (giant foxtail; [3]) | Giant foxtail plant response rating (giant foxtail; [4]) | Giant foxtail plant response rating (giant foxtail; [5]) | Plant response rating, Giant foxtail (giant foxtail; [6]) | Cocklebur plant response rating (cocklebur; [1]) | Cocklebur plant response rating (cocklebur; [7]) | Cocklebur plant response rating (cocklebur; [2]) | Cocklebur plant response rating (0 to 10 scale) (cocklebur; Preemergence, Rate 125 g/ha) | Cocklebur plant response rating (cocklebur; [3]) | Cocklebur plant response rating (cocklebur; [4]) | Cocklebur plant response rating (cocklebur; [5]) | Wild oats plant response rating (wild oat; [1]) | Wild oats plant response rating (wild oat; [2]) | Wild oats plant response rating (0 to 10 scale) (wild oat; Preemergence, Rate 125 g/ha) | Wild oats plant response rating (wild oat; [3]) | Wild oats plant response rating (wild oat; [4]) | Wild oats plant response rating (wild oat; [5]) | Plant response rating, Wild oats (wild oat; [6]) | Redroot pigweed plant response rating (pigweed; [1]) | Redroot pigweed plant response rating (pigweed; [2]) | Redroot pigweed plant response rating (0 to 10 scale) (pigweed; Preemergence, Rate 125 g/ha) | Redroot pigweed plant response rating (pigweed; [3]) | Redroot pigweed plant response rating (pigweed; [4]) | Redroot pigweed plant response rating (pigweed; [5]) | Plant response rating, Redroot pigweed (pigweed; [6]) | Crabgrass plant response rating (crabgrass; [1]) | Crabgrass plant response rating (crabgrass; [7]) | Crabgrass plant response rating (crabgrass; [2]) | Crabgrass plant response rating (0 to 10 scale) (crabgrass; Preemergence, Rate 125 g/ha) | Crabgrass plant response rating (crabgrass; [3]) | Crabgrass plant response rating (crabgrass; [4]) | Crabgrass plant response rating (crabgrass; [5]) | Plant response rating, Crabgrass (crabgrass; [6])
